PubChem BioAssay (NCI)
“And” between values parts separate entries of the source, which are not always exact repeats. Identical values can stand only once.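 Method: 48-hour compound exposure of cells in 96-well plates, five concentrations, linear interpolation of endpoints. GI50: concentration for 50% inhibition of growth. Definition used: TGI = concentration required for complete inhibition of growth.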

How the values were obtained:
Test in all cases: inhibition of tumour cell growth, NCI panel, 48 h
NCI-H522 lung = tested on: NCI-H522 lung
DU-145 prostate = tested on: DU-145 prostate
RXF 393 renal = tested on: RXF 393 renal
SNB-75 CNS = tested on: SNB-75 CNS
OVCAR-8 ovarian = tested on: OVCAR-8 ovarian
SN12C renal = tested on: SN12C renal
MOLT-4 leukemia = tested on: MOLT-4 leukemia
M14 melanoma = tested on: M14 melanoma
SNB-19 CNS = tested on: SNB-19 CNS
SF-295 CNS = tested on: SF-295 CNS

| SMILES | TGI (NCI-H522 lung) | TGI (DU-145 prostate) | GI50 (RXF 393 renal) | TGI (RXF 393 renal) | TGI (SNB-75 CNS) | TGI (OVCAR-8 ovarian) | TGI (SN12C renal) | TGI (MOLT-4 leukemia) | TGI (M14 melanoma) | TGI (SNB-19 CNS) | TGI (SF-295 CNS) | GI50 (NCI-H522 lung) | GI50 (DU-145 prostate) | GI50 (SNB-75 CNS) | GI50 (OVCAR-8 ovarian) | GI50 (SN12C renal) | GI50 (MOLT-4 leukemia) | GI50 (M14 melanoma) | GI50 (SNB-19 CNS) | GI50 (SF-295 CNS) |
| --- | --- | --- | --- | --- | --- | --- | --- | --- | --- | --- | --- | --- | --- | --- | --- | --- | --- | --- | --- | --- |
| Cc1nc2ccc(CN(C)c3ccc(C(=O)N[C@@H](CCC(=O)O)C(=O)O)s3)cc2c(=O)[nH]1 | > 100 µM | > 100 µM | > 21.7 µM | > 100 µM | > 100 µM | > 100 µM | > 100 µM | > 100 µM | > 100 µM | > 100 µM | > 100 µM | – | – | – | – | – | – | – | – | – |
| OCCOc1ccc(-c2cc(-c3ccccn3)nc(-c3ccccn3)c2)cc1 | 14.1 µM | > 30.5 µM | – | 0.85 µM | 26.1 µM | 2.6 µM | > 100 µM | 22.6 µM | 3.91 µM | > 100 µM | > 100 µM | – | – | – | – | – | – | – | – | – |
| Cn1cc(-c2nonc2-c2c[nH]c3ccccc23)c2ccccc21 | 9.79 µM | 12.7 µM | 0.378 µM | 5.7 µM | 0.761 µM | 14.7 µM | 12.1 µM | 14.8 µM | 12 µM | 10.9 µM | 2.97 µM | 0.366 µM | 0.511 µM | 0.188 µM | 0.545 µM | 0.477 µM | 0.499 µM | 0.317 µM | 0.385 µM | 0.352 µM |
| C=CC(=O)Nc1ccc(Nc2nccc(-c3ccc(N4CCCC4)c(C#N)c3)n2)cc1 | > 25 µM | > 25 µM | 0.545 µM | 1.71 µM | > 25 µM | > 25 µM | > 25 µM | > 25 µM | > 25 µM | > 25 µM | > 25 µM | 9.97 µM | 14.1 µM | 3.37 µM | > 25 µM | 15.8 µM | 7.43 µM | 22.8 µM | > 25 µM | 9.44 µM |
| O=[N+]([O-])c1ccc(Nc2ccccc2-c2ccccc2)c2nonc12 | 37.5 µM | > 100 µM | 13.7 µM | 28.7 µM | 36.6 µM | 75.9 µM | 28.2 µM | 88.2 µM | 30.6 µM | 32.3 µM | 29.7 µM | 11.6 µM | 28.2 µM | 13.6 µM | 21.1 µM | 12.4 µM | 20 µM | 13.3 µM | 14.5 µM | 11.7 µM |
| CC/C(Cc1ccccc1)=C(\c1ccc(OCCN2CCCCCC2)cc1)c1ccc(OC(=O)NCc2ccccc2)cc1 | 7.35 µM | 10.3 µM | 1.31 µM | 3.35 µM | 13.2 µM | 4.96 µM | 6.71 µM | 3.78 µM | 2.55 µM | 10.4 µM | 13.2 µM | 1.9 µM | 3.52 µM | 6.09 µM | 1.67 µM | 1.83 µM | 1.15 µM | 1.06 µM | 3.7 µM | 6.5 µM |
| COc1cc(C(=O)OCCCCCCCCCCC[P+](c2ccccc2)(c2ccccc2)c2ccccc2)ccc1O | – | 1.58 µM | – | – | – | 1.53 µM | – | 4.31 µM | 1.45 µM | – | – | – | 0.46 µM | – | 0.345 µM | – | 0.557 µM | 0.349 µM | – | – |
| CC(=O)C1=C(O)C=C2Oc3c(C(=O)/C=C/c4cc(C(F)(F)F)cc(C(F)(F)F)c4)c(O)c(C)c(O)c3[C@]2(C)C1=O | 1.22 µM | 4.91 µM | 0.673 µM | 3.08 µM | 4.91 µM | 1.91 µM | 2.02 µM | 15 µM | 2.31 µM | 4.89 µM | 4.76 µM | 0.38 µM | 0.63 µM | 2.1 µM | 0.496 µM | 0.513 µM | 0.437 µM | 0.612 µM | 0.674 µM | 0.627 µM |
| CC1=NN(C(=O)c2ccccc2O)C(=O)/C1=C/c1ccc([N+](=O)[O-])cc1 | 7.06 µM and 12.9 µM | > 100 µM | 0.263 µM | – | > 100 µM | > 100 µM | > 26.5 µM | > 100 µM | 40.7 µM | > 100 µM | > 100 µM | 2.03 µM | 0.327 µM | 0.0532 µM | 1.44 µM | 2.06 µM | 0.35 µM | 3.01 µM | 0.464 µM | 0.379 µM |
| COc1ccc(C#Cc2ccccc2C#CCCCCO)cc1 | 34.9 µM | 52.6 µM | 16 µM | 33.6 µM | 38.9 µM | 38.6 µM | 23.7 µM | 39.2 µM | 36.2 µM | 36.9 µM | 34.6 µM | 18.6 µM | 21.3 µM | 18.4 µM | 18.1 µM | 11 µM | 18.3 µM | 19.4 µM | 21.4 µM | 18.7 µM |
| Nc1ncnc2c1ncn2C1OC(COP(=O)(O)CP(=O)(O)O)C(O)C1O (centres undefined) | > 100 µM | > 100 µM | – | > 100 µM | > 100 µM | > 100 µM | > 100 µM | > 100 µM | > 100 µM | > 100 µM | > 100 µM | – | – | – | – | – | – | – | – | – |
| COc1cc(-c2nn3c(/C=C4/C(=O)Nc5ccccc54)c(-c4ccc(C)cc4)nc3s2)cc(OC)c1OC | 37.5 µM | > 100 µM | 2.24 µM | 14.7 µM | 10.7 µM | > 100 µM | > 100 µM | – | – | 34.2 µM | 31.1 µM | 10.2 µM | 2.55 µM | 0.552 µM | 3.71 µM | 5.26 µM | – | – | 7.89 µM | 5.04 µM |
| C=C(Cn1c(=O)c2ccccc2c2ccccc21)c1ccc(C(=O)Nc2ccccc2N)cc1 | > 94.4 µM | > 100 µM | 5.21 µM | > 68.5 µM | > 94.4 µM | > 100 µM | > 100 µM | 0.196 µM | > 100 µM | > 100 µM | > 100 µM | 4.55 µM | > 45.9 µM | 4.41 µM | 11.8 µM | 11.3 µM | 0.0415 µM | > 19.8 µM | 42.9 µM | > 79.7 µM |
| COC(=O)[C@@H](NC(=O)NC(=O)NC(=O)CI)C(C)C | 3.31 µM | 29.9 µM | 6.35 µM | 18.8 µM | 26.8 µM | 41.4 µM | 25.7 µM | 7.05 µM | 13.1 µM | 37.7 µM | 40.6 µM | 1.69 µM | 16.4 µM | 13.2 µM | 18.8 µM | 5.46 µM | 2.58 µM | 3.34 µM | 18.8 µM | 17.9 µM |
